Data taken from patent US4120947A, “Xanthine compounds and method of treating bronchospastic and allergic diseases” (priority 1976, dated 1978).
Like-named read-outs stand apart in the source and are kept apart here.

Columns and labels:
[1] = tested on: histamine-induced bronchoconstriction in the guinea pig; experiment: BD: bronchodilator activity against histamine-induced bronchoconstriction in the guinea pig; settings: for inhibition in vivo at 10 mg/kg / inhibition in vivo at 20 mg/kg / inhibition in vivo at 40 mg/kg / inhibition in vivo at 80 mg/kg / inhibition in vivo at 15 mg/kg / inhibition in vivo at 150 mg/kg / inhibition in vivo at 100 mg/kg / inhibition in vivo at 60 mg/kg: Cavia porcellus, po, read-out: BD (guinea pig), % protection; for lethal / bronchodilator effectiveness, in words / onset and duration of action, in words: guinea pig; for bronchodilator effectiveness, in words / onset and duration of action, in words: comparison with corresponding compound
From the text: BD Bronchodilator activity evaluated against histamine-induced bronchoconstriction in the guinea pig, and expressed as % protection at the stated time interval (in minutes and hours) post-drug against histamine agonist. Doses are expressed in milligrams per kilogram of body weight (mpk) per os (po) or intraperitoneally (ip).
A modification of the method of Siegmund. O.H., et al., J. Pharmacol. and Exp. Therap. 90:254-9, 1947, is used. Healthy guinea pigs weighing from 250 to 300 grams are placed four at a time and separated by wiring screening in an 11 liter plastic chamber, at the time of peak activity following drug administration. The challenge consists of histamine diphosphate (1% solution) aerosolized in a de Vilbiss -40 nebulizer at 200 mm Hg. Times for prostration are recorded.
Per cent protection is calculated as follows: [formula] wherein the times are measured in seconds.
In interpreting the BD data it should be noted that a dose giving less than 40-50% protection is not considered useful. Differences in percent protection of less than 10% are probably not significant.

[2] = tested on: antigen-induced bronchconstriction in rats sensitized with N. brasliensis; experiment: AA: antiallergy (anti-anaphylactic) activity against antigen-induced bronchoconstriction in sensitized rats
From the text: The animals are subdivided into control and test groups. Test animals receive a drug either orally, intraperitoneally or intravenously and are challenged with intravenous antigen at fixed time intervals after dosing. Antigen-induced increases in tracheal pressure are monitored and reflect the extent of bronchoconstriction.

[3] = tested on: guinea pig tracheal chain preparation; experiment: SP: spasmolytic activity in vitro, guinea pig tracheal chain preparation; settings: Cavia porcellus, read-out: SP in vitro C, molar concentration required to produce maximum relaxation
From the text: SP Spasmolytic activity evaluated in vitro using guinea pig tracheal chain preparation, and expressed as the molar (M) concentration required to produce maximum relaxation. The method used in that of Castillo and de Beer, J. Pharmac. Expt. Therap. 90, 104, 1947.

in vivo = settings: in vivo; rat, po
Description: (§1) The LD50 was determined in three species, the mouse (male, 18-25 g), the albino rat (female, 150-200 g) and the albino guinea pig (male 180-280 g) by oral administration and in the albino rat by intraperitoneal administration. The animals are fasted overnight prior to testing. Six groups of ten animals are used; five groups are dosed with the test substance, the sixth group serves as a control and receives the drug vehicle at the highest test concentration. The compounds were administered in a 0.5% gum tragacanth solution in distilled water using a constant logarithmic increment in dose. Dose volume ranged from […].
(§2) The animals were housed five per cage (rat and guinea pig) or ten per cage (mouse) with free access to food and water. The number of dead animals was recorded daily for five consecutive days. The total mortality per group of ten for each dose level was recorded and LD50 with Confidence Limits calculated according to the method described by Weil, C.

LD50 mouse = format: in vivo; settings: in vivo, po
Description: as §1, §2

[4] = Rattus norvegicus, ip, 1 h, read-out: AA (rat), % protection

CCOC(=O)n1c(C)nc2c1c(=O)n(C)c(=O)n2CC(C)CC (racemic) [Compound 4477, DL-1,8-dimethyl-3-(2-methyl-1-butyl)xanthine-7-carboxylic acid, ethyl ester]
inhibition in vivo at 10 mg/kg ([1]; 0.5 h): 47% | inhibition in vivo at 10 mg/kg ([1]; 1 h): 87% | inhibition in vivo at 10 mg/kg ([1]; 6 h): 50%

CCCOC(=O)n1c(C)nc2c1c(=O)n(C)c(=O)n2CC(C)CC (racemic) [Compound 4488, DL-1,8-dimethyl-3-(2-methyl-1-butyl)xanthine-7-carboxylic acid, n-propyl ester]
inhibition in vivo at 10 mg/kg ([1]; 1 h): 24% | inhibition in vivo at 20 mg/kg ([1]; 1 h): 78% | inhibition in vivo at 40 mg/kg ([1]; 1 h): 100% | inhibition in vivo at 10 mg/kg ([1]; 6 h): 44% | inhibition in vivo at 20 mg/kg ([1]; 6 h): 68% | inhibition in vivo at 40 mg/kg ([1]; 6 h): 89% | lethal ([1]; 80 mpK po): 1/4

CCc1nc2c(c(=O)n(C)c(=O)n2CC(C)CC)n1C(=O)OC (racemic) [Compound 4491, DL-1-methyl-3-(2-methyl-1-butyl)-8-ethyl-xanthine-7-carboxylic acid, methyl ester]
inhibition in vivo at 10 mg/kg ([1]; 1 h): 25% | inhibition in vivo at 40 mg/kg ([1]; 1 h): 52%

CCC(C)Cn1c(=O)n(CC)c(=O)c2c1nc(C)n2C(=O)OC (racemic) [Compound 4494, DL-1-ethyl-3-(2-methyl-1-butyl)-8-methylxanthine-7-carboxylic acid, methyl ester]
inhibition in vivo at 10 mg/kg ([1]; 1 h): 0% | inhibition in vivo at 40 mg/kg ([1]; 1 h): 9% | inhibition in vivo at 10 mg/kg ([1]; 6 h): 49% | inhibition in vivo at 40 mg/kg ([1]; 6 h): 80% | lethal ([1]; 80 mpK po): 2/2

CCc1nc2c(c(=O)n(CC)c(=O)n2CC(C)CC)n1C(=O)OC (racemic) [Compound 4498, DL-1,8-diethyl-3-(2-methyl-1-butyl)xanthine-7-carboxylic acid, methyl ester]
inhibition in vivo at 40 mg/kg ([1]; 1 h): 15% | inhibition in vivo at 80 mg/kg ([1]; 1 h): 63% | inhibition in vivo at 40 mg/kg ([1]; 6 h): 38% | inhibition in vivo at 80 mg/kg ([1]; 6 h): 79%

CCCC(C)Cn1c(=O)n(C)c(=O)c2c1nc(C)n2C(=O)OC (racemic) [Compound 4515, DL-1,8-dimethyl-3-(2-methyl-1-pentyl)xanthine-7-carboxylic acid, methyl ester]
inhibition in vivo at 20 mg/kg ([1]; 1 h): 7% | inhibition in vivo at 40 mg/kg ([1]; 1 h): 100%

CC(C)Cn1c(=O)n(C)c(=O)c2[nH]cnc21 [Compound 4258, 1-methyl-3-(isobutyl)xanthine]
AA (rat), toxicity ([2]; 2.0 mpK ip, 1h): tox | inhibition in vivo at […] [2, 4]: 79% | inhibition in vivo at 15 mg/kg ([1]; 0.5 h): 45% | inhibition in vivo at 15 mg/kg ([1]; 1 h): 75% | lethal ([1]; 25 mpK po): 2/4

COC(=O)n1cnc2c1c(=O)n(C)c(=O)n2C [Compound 4260, 1,3-dimethylxanthine-7-carboxylic ester, methyl ester]
inhibition in vivo at 75 mg/kg [2, 4]: 82% | EC (maximum relaxation) [3]: 50000 µM | inhibition in vivo at 80 mg/kg ([1]; 0.5 h): 99% | inhibition in vivo at 80 mg/kg ([1]; 1 h): 100% | inhibition in vivo at 80 mg/kg ([1]; 2 h): 86% | inhibition in vivo at 80 mg/kg ([1]; 4 h): 95% | inhibition in vivo at 80 mg/kg ([1]; 6 h): 0% | bronchodilator effectiveness, in words [1]: clearly superior to theophylline at the same dose (80 mpK) | onset and duration of action, in words [1]: more potent, with both faster onset and longer duration of action | bronchodilator effectiveness, in words ([1]; listed as 1,3-dimethyl-7-carbomethoxyxanthine): significantly more effective than theophylline itself

COC(=O)n1cnc2c1c(=O)n(C)c(=O)n2CC(C)C [Compound 4274, 1-methyl-3-(isobutyl)xanthine-7-carboxylic acid, methyl ester]
inhibition in vivo at 5 mg/kg [2, 4]: 74% | EC (maximum relaxation) [3]: 500 µM | inhibition in vivo at 15 mg/kg ([1]; 0.5 h): 92% | inhibition in vivo at 15 mg/kg ([1]; 1 h): 87% | inhibition in vivo at 15 mg/kg ([1]; 2 h): 64% | inhibition in vivo at 15 mg/kg ([1]; 4 h): 18% | lethal ([1]; 40 mpK po): 1/6 | bronchodilator effectiveness, in words [1]: greater protection than 4258 at equal doses

Cc1nc2c([nH]1)c(=O)n(C)c(=O)n2C [Compound 4296, 1,3,8-trimethylxanthine]
inhibition in vivo at 75 mg/kg [2, 4]: 49% | inhibition in vivo at 150 mg/kg ([1]; 0.5 h): 68% | inhibition in vivo at 100 mg/kg ([1]; 1 h): 53% | inhibition in vivo at 150 mg/kg ([1]; 1 h): 80% | inhibition in vivo at 150 mg/kg ([1]; 2 h): 71% | inhibition in vivo at 100 mg/kg ([1]; 4 h): 45% | inhibition in vivo at 150 mg/kg ([1]; 4 h): 79% | inhibition in vivo at 100 mg/kg ([1]; 6 h): 43% | inhibition in vivo at 150 mg/kg ([1]; 6 h): 86% | inhibition in vivo at 100 mg/kg ([1]; 10 h): 23% | inhibition in vivo at 150 mg/kg ([1]; 10 h): 85%

CCCC(C)Cn1c(=O)n(C)c(=O)c2c1ncn2C(=O)OC (stereo not shown) [Compound 4377]
inhibition in vivo at 20 mg/kg ([1]; 1 h): 64% | inhibition in vivo at 80 mg/kg ([1]; 1 h): 72% | inhibition in vivo at 80 mg/kg ([1]; 4 h): 0%

COC(=O)n1c(C)nc2c1c(=O)n(C)c(=O)n2C [Compound 4378, 1,3,8-trimethylxanthine-7-carboxylic acid, methyl ester]
inhibition in vivo at 75 mg/kg [2, 4]: 54% | EC (maximum relaxation) [3]: 100000 µM | inhibition in vivo at 60 mg/kg ([1]; 1 h): 96% | inhibition in vivo at 60 mg/kg ([1]; 4 h): 95% | inhibition in vivo at 60 mg/kg ([1]; 6 h): 89% | onset and duration of action, in words [1]: effective at lower doses and for longer duration

CCC(C)Cn1c(=O)n(C)c(=O)c2c1ncn2C(=O)OC (stereo not shown) [Compound 4380, 1-methyl-3-(2-methyl-1-butyl)xanthine-7-carboxylic acid, methyl ester]
inhibition in vivo at 5 mg/kg ([2]; Rattus norvegicus, po, 1 h, read-out: AA (rat), % protection): 66% | EC (maximum relaxation) [3]: 1430 µM | BD (guinea pig), % protection ([1]; 20 mpK po, 1h): 64% | inhibition in vivo at 20 mg/kg ([1]; 1 h): 64% | inhibition in vivo at 40 mg/kg ([1]; 1 h): 99% | inhibition in vivo at 40 mg/kg ([1]; 4 h): 57% | inhibition in vivo at 40 mg/kg ([1]; 6 h): 12%

CCC(C)Cn1c(=O)n(C)c(=O)c2[nH]c(C)nc21 (stereo not shown) [Compound 4383, 1,8-dimethyl-3-(2-methyl-1-butyl)xanthine]
LD50 (in vivo): 887 mg/kg | LD50 (LD50 mouse): 60.6 mg/kg | BD (guinea pig), % protection ([1]; 10 mpK po, 30'): 35% | BD (guinea pig), % protection ([1]; 20 mpK po, 4h): 100% | BD (guinea pig), % protection ([1]; 20 mpK po, 6h): 97% | inhibition in vivo at 10 mg/kg ([1]; 1 h): 63%

COC(=O)n1c(C)nc2c1c(=O)n(C)c(=O)n2CCC(C)C [Compound 4505, 1,8-dimethyl-3-isopentylxanthine-7-carboxylic acid, methyl ester]
lethal ([1]; 80 mpK po): 3/5

CCCCCn1c(=O)n(C)c(=O)c2c1nc(C)n2C(=O)OC [Compound 4507, 1,8-dimethyl-3-n-pentylxanthine-7-carboxylic acid, methyl ester]
inhibition in vivo at 10 mg/kg ([1]; 1 h): 26% | inhibition in vivo at 20 mg/kg ([1]; 1 h): 52% | inhibition in vivo at 40 mg/kg ([1]; 1 h): 100% | inhibition in vivo at 40 mg/kg ([1]; 6 h): 63% | lethal ([1]; 80 mpK po): 2/2
